Test results from US6376426B1, “Herbicidal 3-(heterocycl-1-yl)-uracils” (BASF Aktiengesellschaft, priority 1999, dated 2002).

Experiments:
Type in all cases: in vivo
[1] = system: Triticum aestivum; assay: Pre-emergence herbicidal test, TRZAW; parameters: key: A rating 0 indicates growth as untreated control; a rating 9 indicates death; details: 21 days after spraying
Protocol: (§1) To evaluate their herbicidal activity, compounds according to the invention are tested using a representative range of plants:
(§2) The pre-emergence tests involve spraying a liquid formulation of the compound onto the soil in which the seeds of the plant species mentioned above has recently been sown.
(§3) The soil used in the tests is a prepared horticultural loam. The formulations used in the tests are prepared from solutions of the test compounds in acetone containing 0.4% by weight of an alkylphenol/ethylene oxide condensate available under the trade mark TRITON X-155. […] In these tests untreated sown soil are used as controls.
(§4) The herbicidal effects of the test compounds are assessed visually twenty-one days after spraying the foliage and the soil and are recorded on a 0-9 scale. A rating 0 indicates growth as untreated control, a rating 9 indicates death. An increase of 1 unit on the linear scale approximates to a 10% increase in the level of effect.

[2] = system: Hordeum vulgare; assay: Pre-emergence herbicidal test, HORVW; parameters: key: A rating 0 indicates growth as untreated control; a rating 9 indicates death; details: 21 days after spraying
Protocol: as §1, §2, §3, §4

[3] = system: Zea mays; assay: Pre-emergence herbicidal test, ZEAMX; parameters: key to herbicidal effect (0-9 scale) ZEAMX / herbicidal rating ZEAMX: A rating 0 indicates growth as untreated control; a rating 9 indicates death; details: PRE, 21 days after spraying
Protocol: as §1, §2, §3, §4

[4] = system: Glycine max; assay: Pre-emergence herbicidal test, GLXMA; details: PRE, 21 days after spraying
Protocol: as §1, §2, §3, §4

[5] = system: Setaria viridis; assay: Pre-emergence herbicidal test, SETVI; parameters: key to herbicidal effect (0-9 scale) SETVI / herbicidal rating SETVI: A rating 0 indicates growth as untreated control; a rating 9 indicates death; details: PRE, 21 days after spraying
Protocol: as §1, §2, §3, §4

[6] = system: Echinochloa crus-galli; assay: Pre-emergence herbicidal test, ECHCG; parameters: key: A rating 0 indicates growth as untreated control; a rating 9 indicates death; details: 21 days after spraying
Protocol: as §1, §2, §3, §4

[7] = system: Alopecurus myosuroides; assay: Pre-emergence herbicidal test, ALOMY; parameters: key to herbicidal effect (0-9 scale) ALOMY / herbicidal rating ALOMY: A rating 0 indicates growth as untreated control; a rating 9 indicates death; details: PRE, 21 days after spraying
Protocol: as §1, §2, §3, §4

[8] = system: Ipomoea hederacea; assay: Pre-emergence herbicidal test, IPOHE; parameters: key: A rating 0 indicates growth as untreated control; a rating 9 indicates death; details: 21 days after spraying
Protocol: as §1, §2, §3, §4

[9] = system: Galium aparine; assay: Pre-emergence herbicidal test, GALAP; parameters: key to herbicidal effect (0-9 scale) GALAP / herbicidal rating GALAP: A rating 0 indicates growth as untreated control; a rating 9 indicates death; details: PRE, 21 days after spraying
Protocol: as §1, §2, §3, §4

[10] = system: Abutilon theophrasti; assay: Pre-emergence herbicidal test, ABUTH; parameters: key to herbicidal effect (0-9 scale) ABUTH / herbicidal rating ABUTH: A rating 0 indicates growth as untreated control; a rating 9 indicates death; details: PRE, 21 days after spraying
Protocol: as §1, §2, §3, §4

[11] = system: Stellaria media; assay: Pre-emergence herbicidal test, STEME; parameters: key to herbicidal effect (0-9 scale) STEME / herbicidal rating STEME: A rating 0 indicates growth as untreated control; a rating 9 indicates death; details: PRE, 21 days after spraying
Protocol: as §1, §2, §3, §4

[12] = system: Matricaria inodora; assay: Pre-emergence herbicidal test, MATIN; parameters: key to herbicidal effect (0-9 scale) MATIN / herbicidal rating MATIN: A rating 0 indicates growth as untreated control; a rating 9 indicates death; details: PRE, 21 days after spraying
Protocol: as §1, §2, §3, §4

[13] = system: Triticum aestivum; assay: Post-emergence herbicidal test, TRZAW; details: POST, 21 days after spraying
Protocol: as §1
(§5) […] After spraying, the plants are placed on greenhouse benches and are cared for in the usual manner, commensurate with conventional greenhouse practices.
as §4

[14] = system: Hordeum vulgare; assay: Post-emergence herbicidal test, HORVW; details: 21 days after spraying
Protocol: as §1
These acetone solutions are diluted with water and the resulting formulations applied at dosage levels equivalent to about 1000, 800, 400, 250 or 100 g/ha per hectare of test compound per pot. After spraying, the plants are placed on greenhouse benches and are cared for in the usual manner, commensurate with conventional greenhouse practices.
as §4

[15] = system: Zea mays; assay: Post-emergence herbicidal test, ZEAMX; parameters: key: A rating 0 indicates growth as untreated control; a rating 9 indicates death; details: 21 days after spraying
Protocol: as §1, §5, §4

[16] = system: Glycine max; assay: Post-emergence herbicidal test, GLXMA; parameters: key: A rating 0 indicates growth as untreated control; a rating 9 indicates death; details: 21 days after spraying
Protocol: as §1, §5, §4

[17] = system: Setaria viridis; assay: Post-emergence herbicidal test, SETVI; parameters: key to herbicidal effect (0-9 scale) SETVI / herbicidal rating SETVI: A rating 0 indicates growth as untreated control; a rating 9 indicates death; details: POST, 21 days after spraying
Protocol: as §1, §5, §4

[18] = system: Echinochloa crus-galli; assay: Post-emergence herbicidal test, ECHCG; parameters: key: A rating 0 indicates growth as untreated control; a rating 9 indicates death; details: 21 days after spraying
Protocol: as §1, §5, §4

[19] = system: Alopecurus myosuroides; assay: Post-emergence herbicidal test, ALOMY; parameters: key: A rating 0 indicates growth as untreated control; a rating 9 indicates death; details: 21 days after spraying
Protocol: as §1, §5, §4

[20] = system: Ipomoea hederacea; assay: Post-emergence herbicidal test, IPOHE; parameters: key to herbicidal effect (0-9 scale) IPOHE / herbicidal rating IPOHE: A rating 0 indicates growth as untreated control; a rating 9 indicates death; details: POST, 21 days after spraying
Protocol: as §1, §5, §4

[21] = system: Galium aparine; assay: Post-emergence herbicidal test, GALAP; parameters: key to herbicidal effect (0-9 scale) GALAP / herbicidal rating GALAP: A rating 0 indicates growth as untreated control; a rating 9 indicates death; details: POST, 21 days after spraying
Protocol: as §1, §5, §4

[22] = system: Abutilon theophrasti; assay: Post-emergence herbicidal test, ABUTH; parameters: key to herbicidal effect (0-9 scale) ABUTH / herbicidal rating ABUTH: A rating 0 indicates growth as untreated control; a rating 9 indicates death; details: POST, 21 days after spraying
Protocol: as §1, §5, §4

[23] = system: Stellaria media; assay: Post-emergence herbicidal test, STEME; parameters: key to herbicidal effect (0-9 scale) STEME / herbicidal rating STEME: A rating 0 indicates growth as untreated control; a rating 9 indicates death; details: POST, 21 days after spraying
Protocol: as §1, §5, §4

[24] = system: Matricaria inodora; assay: Post-emergence herbicidal test, MATIN; parameters: key to herbicidal effect (0-9 scale) MATIN / herbicidal rating MATIN: A rating 0 indicates growth as untreated control; a rating 9 indicates death; details: POST, 21 days after spraying
Protocol: as §1, §5, §4

COc1ccc2ccn(-n3c(=O)cc(C(F)(F)F)n(C)c3=O)c2c1 [Example 1, 6-Methoxy-1-(3-methyl-4-trifluoromethylpyrimidin-2,6-dion-1-yl)-indole]
8: herbicidal effect (0-9 scale) TRZAW ([1]; 250 g/ha) | herbicidal effect (0-9 scale) ZEAMX ([3]; 250 g/ha) | herbicidal effect (0-9 scale) IPOHE ([8]; 250 g/ha) | herbicidal effect (0-9 scale) TRZAW ([13]; 1000 g/ha) | herbicidal effect (0-9 scale) HORVW ([14]; 250 g/ha) | herbicidal effect (0-9 scale) HORVW ([14]; 1000 g/ha) | herbicidal effect (0-9 scale) MATIN ([24]; 250 g/ha)
9: herbicidal effect (0-9 scale) TRZAW ([1]; 1000 g/ha) | herbicidal effect (0-9 scale) HORVW ([2]; 1000 g/ha) | herbicidal effect (0-9 scale) ZEAMX ([3]; 1000 g/ha) | herbicidal effect (0-9 scale) SETVI ([5]; 250 g/ha) | herbicidal effect (0-9 scale) SETVI ([5]; 1000 g/ha) | herbicidal effect (0-9 scale) ECHCG ([6]; 250 g/ha) | herbicidal effect (0-9 scale) ECHCG ([6]; 1000 g/ha) | herbicidal effect (0-9 scale) ALOMY ([7]; 250 g/ha) | herbicidal effect (0-9 scale) ALOMY ([7]; 1000 g/ha) | herbicidal effect (0-9 scale) IPOHE ([8]; 1000 g/ha) | herbicidal effect (0-9 scale) GALAP ([9]; 250 g/ha) | herbicidal effect (0-9 scale) GALAP ([9]; 1000 g/ha) | herbicidal effect (0-9 scale) ABUTH ([10]; 250 g/ha) | herbicidal effect (0-9 scale) ABUTH ([10]; 1000 g/ha) | herbicidal effect (0-9 scale) STEME ([11]; 250 g/ha) | herbicidal effect (0-9 scale) STEME ([11]; 1000 g/ha) | herbicidal effect (0-9 scale) MATIN ([12]; 250 g/ha) | herbicidal effect (0-9 scale) MATIN ([12]; 1000 g/ha) | herbicidal effect (0-9 scale) ZEAMX ([15]; 250 g/ha) | herbicidal effect (0-9 scale) ZEAMX ([15]; 1000 g/ha) | herbicidal effect (0-9 scale) GLXMA ([16]; 250 g/ha) | herbicidal effect (0-9 scale) GLXMA ([16]; 1000 g/ha) | herbicidal effect (0-9 scale) SETVI ([17]; 250 g/ha) | herbicidal effect (0-9 scale) SETVI ([17]; 1000 g/ha) | herbicidal effect (0-9 scale) ECHCG ([18]; 250 g/ha) | herbicidal effect (0-9 scale) ECHCG ([18]; 1000 g/ha) | herbicidal effect (0-9 scale) ALOMY ([19]; 250 g/ha) | herbicidal effect (0-9 scale) ALOMY ([19]; 1000 g/ha) | herbicidal effect (0-9 scale) IPOHE ([20]; 250 g/ha) | herbicidal effect (0-9 scale) IPOHE ([20]; 1000 g/ha) | herbicidal effect (0-9 scale) GALAP ([21]; 250 g/ha) | herbicidal effect (0-9 scale) GALAP ([21]; 1000 g/ha) | herbicidal effect (0-9 scale) ABUTH ([22]; 250 g/ha) | herbicidal effect (0-9 scale) ABUTH ([22]; 1000 g/ha) | herbicidal effect (0-9 scale) STEME ([23]; 250 g/ha) | herbicidal effect (0-9 scale) STEME ([23]; 1000 g/ha) | herbicidal effect (0-9 scale) MATIN ([24]; 1000 g/ha)
6: herbicidal effect (0-9 scale) GLXMA ([4]; 250 g/ha) | herbicidal effect (0-9 scale) GLXMA ([4]; 1000 g/ha) | herbicidal effect (0-9 scale) TRZAW ([13]; 250 g/ha)
7: herbicidal effect (0-9 scale) HORVW ([2]; 250 g/ha)
